Test: Lipophilicity parameter log Pow by RP HPLC run time method (OECD test guidelines)
Type: physicochemical
Experimental: The determination of the lipophilicity parameter log Pow (Table I) was carried out in accordance with OECD test guidelines using the RP HPLC run time method.
To this end, a log k′/log Pow correlation curve based on ten reference substances was plotted and was validated with the help of the lipophilicity parameters of eight comparison substances established through the extraction method.
A commercially available reversed-phase C18 stationary phase was used as stationary phase. Chromatographic separation was carried out with methanol and a buffer solution as mobile phase at pH 7.4 under isocratic conditions.
The retention times of the standards tR were converted in accordance with equation Φ into the capacity factors k′, in which t0, as reaction time of the solvent unretarded on the reversed-phase C18 stationary phase, represents the dead time of the chromatographic system:
The linear correlation of the log k′ values with the log Pow values of the standards published in the appendix to the guidelines 92/69/EEC yields the correlation curve through linear regression.
The lipophilicity parameters log Pow of the analytes were after calculation of the logarithmic capacity factor log k′ interpolated from the correlation curve of the standards.

[1] = RP HPLC run time method (OECD test guidelines)
[2] = RP HPLC run time method, OECD test guidelines

Compound: CCN(CC)c1nc(-c2ccccn2)nc(Cl)c1-c1c(F)cc(F)cc1F [1-9]
- log Pow [1]: log Pow 4.08

Compound: C[C@H](Nc1nc(-c2ccccn2)nc(Cl)c1-c1c(F)cc(F)cc1F)C(C)(C)C [1-10]
- log Pow [1]: log Pow 4.75

Compound: C=C(C)CN(CC)c1nc(-c2ccccn2)nc(Cl)c1-c1c(F)cccc1Cl [I-2]
- log Pow [1]: log Pow 4.73
- log Pow [2]: logPow 4.73

Compound: CC(C)Nc1nc(-c2ccccn2)nc(Cl)c1-c1c(F)cccc1Cl [I-3]
- log Pow [1]: log Pow 3.59
- log Pow [2]: logPow 3.59

Compound: CCN(CC)c1nc(-c2ccccn2)nc(Cl)c1-c1c(F)cccc1Cl [I-5]
- log Pow [1]: log Pow 4.23
- log Pow [2]: logPow 4.23

Compound: C[C@@H](Nc1nc(-c2ccccn2)nc(Cl)c1-c1c(F)cccc1Cl)C(C)(C)C [I-7]
- log Pow [1]: log Pow 4.8
- log Pow [2]: logPow 4.8

Compound: CCN(CC)c1nc(-c2ccccn2)nc(Cl)c1-c1c(F)cc(F)cc1F [I-9]
- log Pow [2]: logPow 4.08

Compound: C[C@H](Nc1nc(-c2ccccn2)nc(Cl)c1-c1c(F)cc(F)cc1F)C(F)(F)F [I-12]
- log Pow [1]: log Pow 4.5
- log Pow [2]: logPow 4.5

Compound: Cc1cccc(-c2nc(Cl)c(-c3c(F)cc(F)cc3F)c(N3CCOCC3)n2)n1 [I-24]
- log Pow [1]: log Pow 4.25
- log Pow [2]: logPow 4.25

Compound: CCN(CC)c1nc(-c2ccccn2)nc(Cl)c1-c1c(F)cc(OC)cc1F [I-64]
- log Pow [1]: logP 5.0
- log Pow [2]: logP 5.0

Compound: CCNc1nc(-c2ccccn2)nc(Cl)c1-c1c(F)cc(OC)cc1F [I-65]
- log Pow [1]: logP 4.0
- log Pow [2]: logP 4.0

Compound: CC(C)Nc1nc(-c2ccccn2)nc(Cl)c1-c1c(F)cc(O)cc1F [I-70]
- log Pow [1]: log.P 3.0
- log Pow [2]: log.P 3.0

Compound: CCN(CC)c1nc(-c2ccccn2)nc(Cl)c1-c1c(F)cccc1F [I-81]
- log Pow [1]: logP 4.7
- log Pow [2]: logP 4.7

Compound: CC(C)[C@H](C)Nc1nc(-c2ccccn2)nc(Cl)c1-c1c(F)cccc1F [I-82]
- log Pow [1]: logP 5.0
- log Pow [2]: logP 5.0

Compound: CC(C)Nc1nc(-c2ccccn2)nc(Cl)c1-c1c(F)cccc1F [I-83]
- log Pow [1]: logP 4.1
- log Pow [2]: logP 4.1

Compound: CC(C)[C@@H](C)Nc1nc(-c2ccccn2)nc(Cl)c1-c1c(F)cccc1F [I-84]
- log Pow [1]: logP 5.0
- log Pow [2]: logP 5.0

Compound: CCNc1nc(-c2ccccn2)nc(Cl)c1-c1ccc(C)cc1C [I-90]
- log Pow [1]: logP 4.6
- log Pow [2]: logP 4.6

Compound: Cc1ccc(-c2c(Cl)nc(-c3ccccn3)nc2NC(C)C)c(F)c1 [I-94]
- log Pow [1]: logP 4.8
- log Pow [2]: logP 4.8

Compound: CCNc1nc(-c2ccccn2)nc(Cl)c1-c1ccc(F)cc1C [I-114]
- log Pow [1]: logP 4.1
- log Pow [2]: logP 4.1

Compound: CCN(CC)c1nc(-c2ncccc2C)nc(Cl)c1-c1c(F)cc(F)cc1F [I-117]
- log Pow [1]: logP 4.6
- log Pow [2]: logP 4.6

From patent US7320975B2, “2-(2-pyridyl)-5-phenyl-6-aminopyrimidine, method and intermediate products for the production and use thereof for combating noxious fungi” (BASF Aktiengesellschaft, priority 2002, dated 2008)
